Publication PMC6298744 (Biochemical pharmacology, 2018)
Read-outs that look alike come from different tables or passages of the source.

Assays:
human 5-HT1A receptor [1] = target: T1, human 5-HT1A receptor (Homo sapiens, UniProt P08908); assay: 5-HT1A receptor [^3H]8-OH-DPAT radioligand binding
T1 sequence (P08908 1-422): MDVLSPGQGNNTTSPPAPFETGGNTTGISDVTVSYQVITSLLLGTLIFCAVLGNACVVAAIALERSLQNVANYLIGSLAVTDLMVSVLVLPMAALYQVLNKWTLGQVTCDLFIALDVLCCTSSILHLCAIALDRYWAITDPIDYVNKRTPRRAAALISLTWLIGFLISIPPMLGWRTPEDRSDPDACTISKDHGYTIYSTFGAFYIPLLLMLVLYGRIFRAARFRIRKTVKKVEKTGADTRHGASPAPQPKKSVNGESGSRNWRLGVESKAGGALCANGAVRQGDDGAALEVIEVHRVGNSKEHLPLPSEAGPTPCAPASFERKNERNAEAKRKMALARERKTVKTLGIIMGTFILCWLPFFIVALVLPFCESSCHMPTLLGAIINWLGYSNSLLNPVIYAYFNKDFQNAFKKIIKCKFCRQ

5-HT2A receptor [2] = target: T2, 5-HT2A receptor (Homo sapiens, UniProt P28223); assay: biochemical; format: binding; conditions: for Selectivity (binding ratios) 5-HT2A : 5-HT1A / Selectivity (binding ratios) 5-HT2A : 5-HT2B / Selectivity (binding ratios) 5-HT2A : 5-HT2C: ratio of Ki values
T2 sequence (P28223 whole entry): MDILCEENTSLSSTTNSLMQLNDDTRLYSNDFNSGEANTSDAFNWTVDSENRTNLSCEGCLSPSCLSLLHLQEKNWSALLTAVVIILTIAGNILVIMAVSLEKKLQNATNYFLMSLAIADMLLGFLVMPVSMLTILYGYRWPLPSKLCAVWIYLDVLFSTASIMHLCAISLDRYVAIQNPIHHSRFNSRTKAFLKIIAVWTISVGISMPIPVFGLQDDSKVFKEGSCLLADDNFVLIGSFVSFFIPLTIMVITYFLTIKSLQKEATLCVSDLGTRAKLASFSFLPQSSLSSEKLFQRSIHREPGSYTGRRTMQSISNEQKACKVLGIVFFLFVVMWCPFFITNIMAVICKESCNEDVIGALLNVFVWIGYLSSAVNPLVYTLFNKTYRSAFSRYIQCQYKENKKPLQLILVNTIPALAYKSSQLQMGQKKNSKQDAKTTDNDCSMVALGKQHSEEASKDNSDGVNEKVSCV

human 5-HT1A receptor [3] = target: T1, human 5-HT1A receptor; assay: 5-HT1A receptor [^35S]GTPγS binding stimulation; format: biochemical
5-HT2A receptor [4] = target: T2, 5-HT2A receptor; assay: cell-based; format: cell-based; conditions: for EC50: mean ± sem
5-HT2B receptor [5] = target: T3, 5-HT2B receptor (Homo sapiens, UniProt P41595); assay: 5-HT2B receptor inositol monophosphate; format: cell-based; conditions: for % maximum stimulation, 5-HT2B stimulation of IP-1 formation: normalized to the maximal stimulation by 5-HT
T3 sequence (P41595 whole entry): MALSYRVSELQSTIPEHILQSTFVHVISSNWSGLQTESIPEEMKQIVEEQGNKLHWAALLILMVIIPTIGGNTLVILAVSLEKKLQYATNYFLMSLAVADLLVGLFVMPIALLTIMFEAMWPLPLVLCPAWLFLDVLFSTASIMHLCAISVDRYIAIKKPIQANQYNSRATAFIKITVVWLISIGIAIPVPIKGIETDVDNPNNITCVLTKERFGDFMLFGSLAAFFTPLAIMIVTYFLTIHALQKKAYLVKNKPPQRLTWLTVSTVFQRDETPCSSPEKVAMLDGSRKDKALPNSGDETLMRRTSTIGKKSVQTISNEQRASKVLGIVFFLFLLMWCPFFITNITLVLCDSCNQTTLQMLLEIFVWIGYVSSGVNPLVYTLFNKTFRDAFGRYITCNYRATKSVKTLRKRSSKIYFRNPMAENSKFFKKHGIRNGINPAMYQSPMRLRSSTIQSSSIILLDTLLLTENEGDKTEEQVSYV

5-HT2C receptor = target: T4, 5-HT2C receptor (Homo sapiens, UniProt P28335); assay: cell-based
T4 sequence (P28335 33-458): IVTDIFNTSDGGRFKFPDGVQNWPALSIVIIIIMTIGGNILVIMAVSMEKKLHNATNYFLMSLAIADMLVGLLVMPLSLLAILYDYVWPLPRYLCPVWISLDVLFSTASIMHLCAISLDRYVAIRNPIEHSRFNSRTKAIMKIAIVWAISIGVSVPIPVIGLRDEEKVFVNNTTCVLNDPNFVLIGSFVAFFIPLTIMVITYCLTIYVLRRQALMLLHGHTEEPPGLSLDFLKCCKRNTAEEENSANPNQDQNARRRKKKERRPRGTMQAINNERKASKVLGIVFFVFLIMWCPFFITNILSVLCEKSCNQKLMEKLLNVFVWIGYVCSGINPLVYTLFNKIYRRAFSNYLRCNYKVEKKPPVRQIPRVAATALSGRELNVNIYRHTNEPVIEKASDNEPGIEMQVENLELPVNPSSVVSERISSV

hDAT [6] = target: T5, hDAT (Homo sapiens, UniProt Q01959); assay: Inhibition of [^125I]RTI-55 binding to hDAT
T5 sequence (Q01959 whole entry): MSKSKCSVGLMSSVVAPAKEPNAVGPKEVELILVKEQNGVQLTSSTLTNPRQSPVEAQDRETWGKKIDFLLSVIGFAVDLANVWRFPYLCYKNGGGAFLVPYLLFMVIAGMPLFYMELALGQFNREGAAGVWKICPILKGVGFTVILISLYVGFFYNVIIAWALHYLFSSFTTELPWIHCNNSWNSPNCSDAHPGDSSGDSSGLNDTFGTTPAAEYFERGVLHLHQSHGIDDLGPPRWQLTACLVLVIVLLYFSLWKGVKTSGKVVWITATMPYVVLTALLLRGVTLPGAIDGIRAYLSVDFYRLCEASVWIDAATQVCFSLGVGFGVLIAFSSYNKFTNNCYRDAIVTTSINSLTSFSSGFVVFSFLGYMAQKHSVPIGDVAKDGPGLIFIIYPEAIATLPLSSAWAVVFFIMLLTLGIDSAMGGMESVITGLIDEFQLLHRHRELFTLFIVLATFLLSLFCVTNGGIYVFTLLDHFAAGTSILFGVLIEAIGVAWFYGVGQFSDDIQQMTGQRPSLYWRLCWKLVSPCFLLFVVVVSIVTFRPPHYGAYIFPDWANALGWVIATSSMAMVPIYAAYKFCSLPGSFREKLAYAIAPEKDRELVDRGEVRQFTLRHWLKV

hSERT [7] = target: T6, hSERT (Homo sapiens, UniProt P31645); assay: Inhibition of [^125I]RTI-55 binding to hSERT
T6 sequence (P31645 whole entry): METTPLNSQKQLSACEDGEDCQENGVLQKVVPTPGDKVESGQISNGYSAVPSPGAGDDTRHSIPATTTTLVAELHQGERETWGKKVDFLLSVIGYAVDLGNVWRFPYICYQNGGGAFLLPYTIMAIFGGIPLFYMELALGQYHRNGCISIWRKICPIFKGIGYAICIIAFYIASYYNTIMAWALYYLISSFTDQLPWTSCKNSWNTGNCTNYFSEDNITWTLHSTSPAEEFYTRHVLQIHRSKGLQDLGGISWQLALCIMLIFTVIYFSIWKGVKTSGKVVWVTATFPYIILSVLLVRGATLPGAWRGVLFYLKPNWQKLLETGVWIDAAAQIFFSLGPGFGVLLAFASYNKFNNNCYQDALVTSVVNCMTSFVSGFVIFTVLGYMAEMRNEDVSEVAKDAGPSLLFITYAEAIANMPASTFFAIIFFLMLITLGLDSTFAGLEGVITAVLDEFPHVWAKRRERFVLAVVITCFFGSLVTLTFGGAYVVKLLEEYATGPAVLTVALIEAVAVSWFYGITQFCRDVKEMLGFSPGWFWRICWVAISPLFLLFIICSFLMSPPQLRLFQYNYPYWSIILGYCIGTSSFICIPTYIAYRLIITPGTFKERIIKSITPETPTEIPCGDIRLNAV

hNET [8] = target: T7, hNET (Homo sapiens, UniProt P23975); assay: biochemical; format: binding
T7 sequence (P23975 whole entry): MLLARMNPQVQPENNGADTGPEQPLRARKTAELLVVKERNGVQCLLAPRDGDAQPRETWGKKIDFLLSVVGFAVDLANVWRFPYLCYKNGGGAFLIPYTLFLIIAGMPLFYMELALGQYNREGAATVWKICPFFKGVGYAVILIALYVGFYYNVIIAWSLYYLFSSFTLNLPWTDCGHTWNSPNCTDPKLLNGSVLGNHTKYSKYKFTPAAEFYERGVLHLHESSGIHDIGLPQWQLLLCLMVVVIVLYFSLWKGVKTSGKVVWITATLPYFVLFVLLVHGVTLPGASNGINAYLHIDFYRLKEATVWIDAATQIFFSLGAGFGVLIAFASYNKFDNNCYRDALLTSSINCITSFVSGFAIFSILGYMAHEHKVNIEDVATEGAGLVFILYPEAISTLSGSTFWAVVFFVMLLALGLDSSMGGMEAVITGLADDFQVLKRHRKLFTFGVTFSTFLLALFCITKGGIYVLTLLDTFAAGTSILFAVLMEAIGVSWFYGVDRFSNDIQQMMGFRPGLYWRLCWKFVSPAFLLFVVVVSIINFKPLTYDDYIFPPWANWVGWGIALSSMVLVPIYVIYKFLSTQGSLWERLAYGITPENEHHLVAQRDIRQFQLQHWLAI

hDAT [9] = target: T5, hDAT; assay: Inhibition of [^3H]DA uptake by HEK-hDAT cells; format: cell-based
hSERT [10] = target: T6, hSERT; assay: Inhibition of [^3H]5-HT uptake by HEK-hSERT cells; format: cell-based
hNET [11] = target: T7, hNET; assay: cell-based
hDAT [12] = target: T5, hDAT; assay: Release of preloaded [^3H]DA from HEK-hDAT cells; format: cell-based; conditions: for % maximum release, hDAT [^3H]DA: relative to maximum release induced by METH (1–10 μM)
hSERT [13] = target: T6, hSERT; assay: Release of preloaded [^3H]5-HT from HEK-hSERT cells; format: cell-based; conditions: for % maximum release, hSERT [^3H]5-HT: relative to maximum release induced by METH (0.3–1 mM)
hNET [14] = target: T7, hNET; assay: Release of preloaded [^3H]NE from HEK-hNET cells; format: cell-based; conditions: for % maximum release, hNET [^3H]NE: relative to maximum release induced by METH (0.3–1 μM)
5-HT2B receptor [15] = target: T3, 5-HT2B receptor; assay: 5-HT2B receptor [^3H]5-HT binding
[16] = normalized to the maximal stimulation by 5-HT
[17] = read-out: Inhibition of [^125I]RTI-55 binding Ki, hDAT, mean ± sem, HEK-hDAT
[18] = read-out: Inhibition of [^125I]RTI-55 binding Ki, hSERT, mean ± sem, HEK-hSERT
[19] = read-out: Inhibition of [^125I]RTI-55 binding Ki, hNET, mean ± sem, HEK-hNET
[20] = read-out: Drug-induced release of [^3H]neurotransmitter EC50, hDAT [^3H]DA, mean ± sem, HEK-hDAT
[21] = read-out: Drug-induced release of [^3H]neurotransmitter EC50, hSERT [^3H]5-HT, mean ± sem, HEK-hSERT
[22] = read-out: Drug-induced release of [^3H]neurotransmitter EC50, hNET [^3H]NE, mean ± sem, HEK-hNET

Row | SMILES | Selectivity (binding ratios) 5-HT2A : 5-HT1A (5-HT2A receptor [2]) | Selectivity (binding ratios) 5-HT2A : 5-HT2B (5-HT2A receptor [2]) | Selectivity (binding ratios) 5-HT2A : 5-HT2C (5-HT2A receptor [2]) | Selectivity (functional ratios) 5-HT2A: 5-HT2B (5-HT2A receptor [4]; ratio of EC50 values) | Selectivity (functional ratios) 5-HT2A: 5-HT2C (5-HT2A receptor [4]; ratio of EC50 values) | Ki (hSERT [7]) [µM] | Ki (hNET [8]) [µM] | IC50 (hSERT [10]) [µM] | IC50 (hNET [11]) [µM] | % maximum release, hDAT [^3H]DA (hDAT [12]) [%] | % maximum release, hSERT [^3H]5-HT (hSERT [13]) [%] | % maximum release, hNET [^3H]NE (hNET [14]) [%] | % maximum stimulation, 5-HT2B stimulation of IP-1 formation (5-HT2B receptor [5]) [%] | Ki (hDAT [6]; [17]) [µM] | Ki (hSERT [7]; [18]) [µM] | Ki (hNET [8]; [19]) [µM] | EC50 (hDAT [12]; [20]) [µM] | EC50 (hSERT [13]; [21]) [µM] | EC50 (hNET [14]; [22]) [µM] | also measured
1 | COc1cc(CCNCc2ccccc2O)c(OC)cc1I [25I-NBOH, 2-(((4-iodo-2,5-dimethoxyphenethyl)amino)methyl)phenol] | 13100 | 11 | 6.1 | 146 | 3.1 | 1.22 ± 0.21 | 4.06 ± 0.65 | 1.72 ± 0.25 | 0.629 ± 0.093 | −0.56 ± 0.35 | −0.27 ± 0.40 | 16 ± 16 |  |  |  |  |  |  |  | Ki (human 5-HT1A receptor [1]): 2.22 ± 0.59 µM; Ki (5-HT2A receptor [2]): 0.000169 ± 1.3e-05 µM; EC50 (human 5-HT1A receptor [3]): 37 ± 13 µM; Emax (human 5-HT1A receptor [3]; read-out: % maximum stimulation, 5-HT1A stimulation of [^35S]GTPγS binding): 74%; EC50 (5-HT2A receptor [4]; EC50, 5-HT2A stimulation of IP-1 formation): 0.00076 ± 0.00026 µM; Emax (5-HT2A receptor [4]; read-out: % maximum stimulation, 5-HT2A stimulation of IP-1 formation): 87.5%; EC50 (5-HT2B receptor [5]): 0.111 ± 0.013 µM; Emax (5-HT2B receptor [5]; read-out: % maximum stimulation, 5-HT2B stimulation of IP-1 formation): 21.3%; EC50 (5-HT2C receptor): 0.00238 ± 0.00072 µM; Emax (5-HT2C receptor; read-out: % maximum stimulation, 5-HT2C stimulation of IP-1 formation): 94%; Ki (hDAT [6]): 8.5 ± 0.38 µM; IC50 (hDAT [9]): 30.7 ± 5 µM; EC50 (hDAT [12]): > 100 µM; EC50 (hSERT [13]): > 100 µM; EC50 (hNET [14]): > 100 µM; Ki (5-HT2B receptor [15]): 0.00191 ± 0.00048 µM
2 | COc1cc([N+](=O)[O-])c(OC)cc1CCNCc1ccccc1OC [25N-NBOMe] | 15700 | 60 | 7.4 | 92 | 2.6 |  |  |  |  | −0.89 ± 0.91 | −0.25 ± 0.54 | 25 ± 15 | 57.6 ± 8.6 | 37.9 ± 4.6 | 5.81 ± 0.9 | 11.3 ± 3.5 | > 100 | > 100 | > 38 | Ki (human 5-HT1A receptor [1]; read-out: Inhibition of radioligand binding Ki, 5-HT1A [^3H]8OH-DPAT, mean ± sem, recombinant human 5-HT1A in HEK cells, agonist radioligand): 2.26 ± 0.23 µM; % maximum stimulation, 5-HT1A stimulation of [^35S]GTPγS binding (human 5-HT1A receptor [3]; [16]): 35.6 ± 6.6%; EC50 (human 5-HT1A receptor [3]; read-out: EC50, 5-HT1A stimulation of [^35S]GTPγS binding, mean ± sem): 4.8 ± 1.8 µM; % maximum stimulation, 5-HT2A stimulation of IP-1 formation (5-HT2A receptor [4]; [16]): 87.9 ± 3.4%; Selectivity (functional ratios) 5-HT2A: 5-HT1A (5-HT2A receptor [4]; ratio of EC50 values): 9400; EC50 (5-HT2A receptor [4]; read-out: EC50, 5-HT2A stimulation of IP-1 formation): 0.00051 ± 0.00019 µM; EC50 (5-HT2B receptor [5]; read-out: EC50, 5-HT2B stimulation of IP-1 formation, mean ± sem): 0.047 ± 0.011 µM; % maximum stimulation, 5-HT2C stimulation of IP-1 formation (5-HT2C receptor; [16]): 99.4 ± 0.4%; EC50 (5-HT2C receptor; read-out: EC50, 5-HT2C stimulation of IP-1 formation, mean ± sem): 0.00132 ± 0.00027 µM
3 | CCN(CC)C(=O)[C@@H]1C=C2c3cccc4[nH]cc(c34)C[C@H]2N(C)C1 [LSD, (+)lysergic acid diethylamide, reference compound] |  |  |  |  |  |  |  |  |  | 7.4 ± 4.7 | −0.59 ± 0.55 | 35.7 ± 4.2 | 23.3 ± 4.9 | > 100 | 62.9 ± 5 | 76.9 ± 8.5 | > 54 | > 100 | > 91 | % maximum stimulation, 5-HT2A stimulation of IP-1 formation (5-HT2A receptor [4]): 0.706 ± 0.065 (3) 64.5 ± 6.3%
4 | CN[C@@H](C)Cc1ccccc1 [METH, (S+)methamphetamine, reference compound] |  |  |  |  |  |  |  |  |  | 104.1 ± 1.3 | 104.9 ± 6.8 | 106.7 ± 3.3 |  |  |  |  | 0.43 ± 0.15 | 27.5 ± 7 | 0.152 ± 0.056 | 
5 | OC1(c2ccc(Cl)cc2)c2ccccc2C2=NCCN21 (stereo not shown) [Mazindol, reference compound] |  |  |  |  |  | 0.127 ± 0.039 | 0.0116 ± 0.0035 | 0.069 ± 0.012 | 0.0011 ± 0.0003 |  |  |  |  |  |  |  |  |  |  | 
